| SMILES | melting point |
| --- | --- |
| COC(=O)CCCc1cc2cc(Cl)ccc2n1S(=O)(=O)c1ccccc1 | 109 to 112 °C |
| OC[C@]1(c2ccccc2)O[C@H]1c1ccccc1 | 88 to 89 °C |
| COC(=O)Cc1ccc(OCCN)c(OC)c1 | 77 to 80 °C |
| Cc1ccccc1OCC(O)CNC(C)COc1cccnc1C(N)=O (stereo not drawn) | 145 to 161 °C |
| CC1C(C)(C)c2ccc(C(=O)CCC(=O)O)cc2C1(C)C (stereo not drawn) | 161 °C |
| O=C(c1ccc(F)cc1)c1ccc(C#Cc2ccc(F)cc2)cc1 | 190 to 191 °C |
| CCn1nnc(Cc2ccc(NC(=O)/C=C/c3cnn(C)c3-c3ccc(F)cc3)cc2)n1 | 187 to 188 °C |
| COc1ccc2c(c1)Oc1c(ccc(OC)c1C(OC)OC)C2(C)C | 60 to 62 °C |
| O=C(Nc1nc(C(F)(F)F)c(Br)s1)c1ccc(Cl)c(Cl)c1 | 191 to 192 °C |
| CCC(C(O)c1ccc(Cl)cc1)n1ncn(-c2ccc(N3CCN(c4ccc(O)cc4)CC3)cc2)c1=O (stereo not drawn) | 270 °C |
| CCN1CCNC(=O)C1c1ccc(N)cc1 (stereo not drawn) | 153 to 154 °C |
| Cn1nc(-c2ccc3c(c2)CCN(C2CCC2)CC3)ccc1=O | 287 to 288 °C |
| CCOc1nc(N)nc(N2CCc3ccccc3CC2)c1C#N | 195 to 203 °C |
| O=P(Oc1ccc(S(=O)(=O)c2ccc(OP(=O)(c3ccccc3)c3ccccc3)cc2)cc1)(c1ccccc1)c1ccccc1 | 210 to 211 °C |
| COC1(N2CCCC2)C=CC=C(c2cnc3[nH]cc(C(=O)C(C)(C)C)c3n2)C1 (stereo not drawn) | 245 to 256 °C |
| CC(=O)c1ccc(C2CCC(CC(=O)NC3CCN(Cc4ccc(Cl)c(Cl)c4)CC3)CC2)cc1 (stereo not drawn) | 168 °C |
| CCOc1c(C=NOC)c(=O)n(C)c(=O)n1C | 108 to 109 °C |
| Cc1ccc(-c2n[nH]c3c2CCCC3)cc1 | 57.4 to 59.9 °C |
| Clc1ccc(COc2ccc(Cl)cc2C(c2ccccc2)n2ccnc2)c(Cl)c1 (stereo not drawn) | 132 to 134 °C |
| CCOC(=O)c1c(N(C(C)=O)C(C)=O)c2cccnc2n(CC)c1=O | 133 to 135 °C |
| C=CCN(c1ccccc1CC(=O)N(C)C)c1c(Cl)cccc1Cl | 110 to 114 °C |
| COC(=O)c1ccc(/C=C/c2nc(-c3ccc4ccccc4c3)oc2C)cc1 | 216 to 217 °C |
| COc1ccc2c(c1Br)CCC=C2C#N | 108 to 109 °C |
| CCCc1c(OCCCOc2cccc(NC(=O)C(=O)O)c2C)ccc(C(C)=O)c1O | 146 to 148 °C |
| CCCc1c(C)c(NC(=O)CC(C)(C)C)c(C)c2c1OCC2c1ccc(C(C)C)cc1 (stereo not drawn) | 145 to 148 °C |

| SMILES | melting point |
| --- | --- |
| CCCCNC(=O)Nc1cccc(-c2ccnc3c(C(=O)c4cccs4)cnn23)c1 | 158 to 160 °C |
| Cn1c([N+](=O)[O-])cnc1-c1nc(CCl)cs1 | 160 to 162 °C |
| O=Cc1c[nH]c2cc(F)c(OCc3ccccc3)cc12 | 190 °C |
| CCC(CC)N(O)C(=O)Nc1ccc([N+](=O)[O-])cc1 | 169 to 170 °C |
| CCCCCCNc1nc(SC)[nH]c2nccc1-2 | 118 °C |
| CNC(=O)c1ccc2[nH]cc(C3=CCN(C)CC3)c2c1 | 125 to 135 °C |
| CCc1ccc(/C=C/c2nc(COc3ccc(CCCCn4ccnc4CCO)cc3)co2)cc1 | 94 to 95 °C |
| Cc1nc2cccc(S(=O)(=O)n3c(COC(C)C(=O)O)cc4nc(Cl)ccc43)c2s1 (stereo not drawn) | 203 to 205 °C |
| CC(C)(C)OC1CCCC2C(=O)CCCC12C (stereo not drawn) | 78 to 79 °C |
| CC(C)C(=O)c1cn(Cc2c(F)cccc2F)c2sc(-c3ccc(NC(=O)C(C)(C)O)cc3)c(CN(C)Cc3ccccc3)c2c1=O | 178 to 180 °C |
| NC(=O)NNC1=NC=Cc2ccccc2C1 | 188 to 189 °C |
| CC(C)=NNc1nc(Cl)c(-c2c(F)cc(F)cc2F)c(NC(C)C(F)(F)F)n1 (stereo not drawn) | 157 to 159 °C |
| N#Cc1nc(Cl)c(Oc2ccccc2)nc1C#N | 115 to 118 °C |
| CON=C1CCS(=O)(=O)c2c(C)cc(C(=O)O)c(C)c21 | 169 to 171 °C |
| COc1cc2c(cc1OC)CCN=C2 | 185 to 187 °C |
| CCCCCCC(O)CCCCCCCCCCC(=O)NCCCC (stereo not drawn) | 100 to 102 °C |
| O=C1c2ccccc2C(=O)N1OCCc1cn(C(c2ccccc2)(c2ccccc2)c2ccccc2)cn1 | 177 °C |
| C[C@H](N)C(=O)NC(C)(Cc1ccc(F)cc1)c1ccc(F)cc1 (stereo partly drawn) | 134 to 135 °C |
| COc1cc(COc2nn(-c3ccccc3)cc2/C=C/c2nnc(C)[nH]2)ccc1OCc1nc(-c2ccco2)oc1C | 165 to 166 °C |
| CCC(C)C(C#N)NCC(O)c1ccccc1 (stereo not drawn) | 106 to 108 °C |
| O=C(CCCCBr)NNC(=O)N1Cc2ccccc2Oc2ccc(Cl)cc21 | 147 to 149 °C |
| COc1cccc(C=C2CCc3c2nc2ccc(C(=O)O)cn2c3=O)c1 | 310 to 312 °C |
| CCc1nc2c(N)nc3cc(OS(C)(=O)=O)ccc3c2n1CCOc1ccccc1 | 213 to 214 °C |
| Cc1cn2c(n1)CN=C(c1ccccc1Cl)c1cc(Cl)ccc1-2 | 170 °C |
| CCOC(=O)c1cccc(Cc2c[nH]cn2)c1O | 133 °C |

| SMILES | melting point |
| --- | --- |
| Cc1c(C)c2c(c(C)c1N)CC(C)(CSCCO)O2 (stereo not drawn) | 108 to 109 °C |
| COc1ccc(C2=NN(C3CCN(C(=O)CCSCCNC(=O)OC(C)(C)C)CC3)C(=O)[C@@H]3CC=CC[C@H]23)cc1OC | 132 to 134 °C |
| CCCCCCC(C)(C)c1ccc(C2CC(=O)CC(=O)C2)c(OCc2ccccc2)c1 | 102 to 103 °C |
| CN(C)CC1CCc2cc(NC(=O)c3ccc(-c4ccc(N)cc4)cc3)ccc2C1 (stereo not drawn) | 148 to 150 °C |
| COC1=CC=C2C3Cc4ccc(O)c5c4C2(CCN3C)C1O5 (stereo not drawn) | 114 to 116 °C |
| CCc1cc(C#N)cc2c(NCc3ccc(OC)c(Cl)c3)c(CO)cnc12 | 188 to 189 °C |
| O=C(CI)NCCSC=CSCCNC(=O)CI | 129 °C |
| OC1(C(Cl)Cl)O[C@H](COCc2ccccc2)[C@@H](OCc2ccccc2)[C@H](OCc2ccccc2)[C@H]1OCc1ccccc1 (stereo partly drawn) | 72 to 73 °C |
| CCOC(=O)c1c(Cl)nc2cscc2c1Cl | 79 °C |
| CC(C)(C)C(O)c1ccc(C(=O)c2ccccc2)cc1 (stereo not drawn) | 103 to 105 °C |
| CN(C)c1ccc(OCc2ccncc2)cc1 | 123 to 125 °C |
| CCOC(=O)/C=C/C1N(C(C)C)C(=O)c2ccccc2C1(O)c1ccc(F)cc1 (stereo not drawn) | 220 to 221 °C |
| CCCCc1nc2c(N)nc3ccccc3c2n1CCCCCS(C)=O (stereo not drawn) | 119 to 121 °C |
| CCCSc1ccc(C(=O)C(=O)OCC)[nH]1 | 34 °C |
| CCOC(=O)[C@H](Cc1ccc(O)cc1)NC(=O)c1c(Cl)cccc1Cl | 141 to 142 °C |
| Cn1c(=O)n(CCCC(NS(=O)(=O)c2ccc(-c3ccc(Cl)cc3)cc2)C(=O)NO)c(=O)c2ccccc21 (stereo not drawn) | 235 °C |
| COC(=O)c1sccc1N=NN(C)C | 74 to 76 °C |
| COc1ccc(CN2CC(CO)CC2=O)cc1OC (stereo not drawn) | 78 to 79 °C |
| COc1ccc(-c2cc(=O)[nH]nc2-c2ccc(OC)c(F)c2)cc1F | 205 to 206 °C |
| c1ccc(-c2cc3ccccc3o2)nc1 | 86 to 87 °C |
| CN1CCN(c2cc(NC(=O)OC(C)(C)C)c([N+](=O)[O-])cc2C#Cc2ccccc2)CC1 | 170 °C |
| O=C(CC(=O)c1cccc(C(F)(F)F)c1NC(=O)CCl)Nc1nccs1 | 192 °C |
| CNC(=S)n1nc(Oc2c(Cl)cc(C(F)(F)F)cc2Cl)cc1C | 121 to 123 °C |

Reference: a melting point compilation (Tetko et al.; mined from patent text by program, amines drawn as free bases though some values may be those of a salt)
